In assay [1] the test system is IL-6 secretion by endothelial cells (HMVEC). As to the kind of experiment: AGE-induced inflammatory response determined by IL-6 ELISA. The conditions noted are these: 24 hrs. Format: cell-based, human. (In general: In an ELISA, binding on a coated surface is turned into a signal by an enzyme label.)
Method: These cell were allowed to reach >90% confluency before being subjected to experimental treatments. G-HSA was from US Biologicals. Tumor necrosis factor α (TNFα) was from R&D Systems.
HMVEC were treated with control medium or medium containing 100 ng/ml TNFα or 300 μg/ml G-HSA for 24 hrs. All treatments and controls were carried out in serum free media containing 0.2% albumin. Following treatment, cell media were collected and used for an IL-6 ELISA.
The IL-6 ELISA was carried out using human IL-6 DuoSet ELISA development kit as described by manufacturer (R&D Systems). Mouse anti-human IL-6 was used as the capture antibody (2 μg/ml) and biotinylated goat anti-human IL6 (200 ng/ml) was used as the detection antibody. The culture media were incubated with capture antibody for 2 h at room temperature in 96-well plates. The wells were washed three times with wash buffer (0.05% Tween-20 in phosphate buffered saline (PBS) pH 7.4) followed by incubation with detection antibody for 2 h at room temperature. Following three washes, the wells were incubated with Streptavidin-HRP for 20 min. Color development was read at 450 nm in a microplate reader.
Assay [2] relates to MCP-1 secretion by endothelial cells (HAEC and HMVEC). As to the kind of experiment: AGE-induced inflammatory response determined by MCP-1 ELISA. The conditions noted are these: 100 ng/ml TNFα or 300 μg/ml G-HSA, 24 hrs, vs control medium (FIG. 2). It is filed as cell-based, human.
Method: HAEC and HMVEC (Clonetics) were cultured and subcultured according to manufacturer in growth medium (Clonetics): basal medium containing hEGF, hydrocortisone, VEGF, HFGF-B (with heparin), long R3-IGF-1, ascorbic acid, gentamicin/amphotericin and 5% FBS. These cells were allowed to reach >90% confluency before being subjected to experimental treatments.
Cells were treated with control medium or medium containing 100 ng/ml TNFα or 300 μg/ml G-HSA for 24 hrs. All treatments and controls were carried out in serum free media containing 0.2% albumin. Following treatment, media were collected and used for the MCP-1 ELISA.
MCP-1 ELISA was carried out using a DuoSet ELISA Development System for Human MCP-1 as described by the manufacturer (R&D Systems). 2 ug/ml of mouse anti-human MCP-1 was used as the capture antibody and 100 ng/ml biotinylated goat anti-human MCP-1 was used as the detection antibody. The culture media were incubated with capture antibody for 2 h at room temperature in 96-well plates. The wells were washed three times with wash buffer (0.05% Tween-20 in phosphate buffered saline (PBS) pH 7.4) followed by incubation with detection antibody for 2 h at room temperature. Color development was read at 450 nm in a microplate reader.

For Tumor necrosis factor α [TNFα], the “increase in IL-6 secretion” value in assay [1] (100 ng/ml TNFα or 300 μg/ml G-HSA, HMVEC, vs control medium (FIG. 1)) amounted to 147%. In addition, the “increase in IL-6 secretion by endothelial cells” value in assay [1] (100 ng/ml TNFα, serum free media containing 0.2% albumin, vs control medium) is listed as “greater than 2 fold”. For the same substance, the “increase in MCP-1 secretion” value in assay [2] is on record as 540%.

The record behind these values is patent US7273712B2, “Methods and compositions for detecting compounds that modulate inflammatory responses” (Reddy US Therapeutics, Inc., priority 2000, dated 2007).
